Results on three compounds are retold here after ChEMBL document CHEMBL1131639, “Structural analysis of thrombin complexed with potent inhibitors incorporating a phenyl group as a peptide mimetic and aminopyridines as guanidine substitutes” (J Med Chem, 1998).

Where a SMILES comes first, the peptide text is derived from it.

Usually IC50 stands for the concentration that inhibits the measured activity by half. What is called Ki is a measure of affinity in units of concentration, obtained from inhibition or displacement. Low readings indicate higher affinity, high ones lower affinity.

Assay [1] addresses T1, Prothrombin (Homo sapiens, UniProt P00734). Kind of assay: (§1) Compound was evaluated for the inhibition of thrombin.
In assay [2] the target is Integrin alpha-IIb/beta-3 (Homo sapiens, UniProt P05106+P08514). Description: Compound was evaluated for inhibition against Fibrinogen Receptor. In kind it is protein-complex assay.
For assay [3], the target named is T1, Prothrombin. Described as §1. The source holds these as a separate data set.

Integrin alpha-IIb/beta-3, sequence (P05106 27-788 limits assumed): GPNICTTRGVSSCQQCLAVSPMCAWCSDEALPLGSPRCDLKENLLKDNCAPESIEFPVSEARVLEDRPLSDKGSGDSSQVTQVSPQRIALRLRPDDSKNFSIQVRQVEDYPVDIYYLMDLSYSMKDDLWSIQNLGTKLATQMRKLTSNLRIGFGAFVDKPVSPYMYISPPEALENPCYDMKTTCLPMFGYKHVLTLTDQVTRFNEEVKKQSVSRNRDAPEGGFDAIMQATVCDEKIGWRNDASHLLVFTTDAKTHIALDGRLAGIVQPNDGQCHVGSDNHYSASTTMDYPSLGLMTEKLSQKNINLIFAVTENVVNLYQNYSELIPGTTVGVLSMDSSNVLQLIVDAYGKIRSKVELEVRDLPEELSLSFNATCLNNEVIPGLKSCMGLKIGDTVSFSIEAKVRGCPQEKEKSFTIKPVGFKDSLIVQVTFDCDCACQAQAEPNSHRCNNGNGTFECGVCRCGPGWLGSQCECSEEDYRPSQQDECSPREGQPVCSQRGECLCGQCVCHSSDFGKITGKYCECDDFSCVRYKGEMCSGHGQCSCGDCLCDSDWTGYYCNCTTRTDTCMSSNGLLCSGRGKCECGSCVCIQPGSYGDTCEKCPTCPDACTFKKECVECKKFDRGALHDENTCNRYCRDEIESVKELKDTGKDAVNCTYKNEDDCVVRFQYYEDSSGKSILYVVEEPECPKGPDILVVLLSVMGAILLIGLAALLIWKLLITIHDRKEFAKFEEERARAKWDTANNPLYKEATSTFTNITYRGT
Integrin alpha-IIb/beta-3, sequence (P08514 32-887 limits assumed): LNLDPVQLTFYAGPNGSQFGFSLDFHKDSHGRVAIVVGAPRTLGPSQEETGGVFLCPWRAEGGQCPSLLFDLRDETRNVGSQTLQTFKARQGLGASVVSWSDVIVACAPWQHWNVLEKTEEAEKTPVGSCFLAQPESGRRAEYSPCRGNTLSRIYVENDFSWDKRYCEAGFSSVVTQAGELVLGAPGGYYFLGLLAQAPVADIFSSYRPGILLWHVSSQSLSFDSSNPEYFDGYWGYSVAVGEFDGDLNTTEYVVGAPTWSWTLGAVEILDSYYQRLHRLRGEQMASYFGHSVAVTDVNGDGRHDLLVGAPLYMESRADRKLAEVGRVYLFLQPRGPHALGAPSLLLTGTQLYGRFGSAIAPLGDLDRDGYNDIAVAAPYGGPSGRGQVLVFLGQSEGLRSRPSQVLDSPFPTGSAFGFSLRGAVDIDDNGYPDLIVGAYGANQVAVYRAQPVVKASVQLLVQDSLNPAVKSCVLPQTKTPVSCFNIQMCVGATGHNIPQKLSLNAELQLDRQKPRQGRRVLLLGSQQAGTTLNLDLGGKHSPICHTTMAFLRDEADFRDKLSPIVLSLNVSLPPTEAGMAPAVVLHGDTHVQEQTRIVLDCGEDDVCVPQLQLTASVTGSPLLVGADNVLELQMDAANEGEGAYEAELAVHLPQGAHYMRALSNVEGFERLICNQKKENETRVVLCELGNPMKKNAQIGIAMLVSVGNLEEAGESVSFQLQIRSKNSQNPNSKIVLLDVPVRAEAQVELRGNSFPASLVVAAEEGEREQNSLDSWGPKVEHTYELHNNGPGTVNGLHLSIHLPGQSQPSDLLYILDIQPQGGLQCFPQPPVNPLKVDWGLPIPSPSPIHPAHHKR
Integrin alpha-IIb/beta-3, sequence (P08514 891-1039 limits assumed): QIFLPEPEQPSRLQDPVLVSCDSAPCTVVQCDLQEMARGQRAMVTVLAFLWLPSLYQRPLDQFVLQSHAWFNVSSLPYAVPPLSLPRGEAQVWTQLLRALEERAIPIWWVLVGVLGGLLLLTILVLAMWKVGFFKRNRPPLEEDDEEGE

`CC1CCN(C(=O)[C@H](CCCNc2ccc(N)cn2)NS(=O)(=O)c2cccc3c(N(C)C)cccc23)CC1` yielded a Ki0 on Prothrombin [1] of 360 nM.

For the compound `NC(N)=NCCCC[C@H](N)C(=O)NCC(=O)N[C@@H](CC(=O)O)C(=O)N[C@@H](Cc1cc2ccccc2[nH]1)C(=O)O` (HELM PEPTIDE1{[N=C(N)NCCCC[C@H](N)C(=O)[*:2]].G.D.[O=C(O)[C@H](Cc1cc2ccccc2[nH]1)N[*:1]]}$$$$V2.0), it took 1700 nM to reach half-maximal inhibition in assay [2] (IC50).

At Prothrombin [3], `NC(N)=NCCCCNC(=O)[C@@H]1CCCN1C(=O)[C@H](N)Cc1ccccc1` (HELM PEPTIDE1{[dF].P.[N=C(N)NCCCCN[*:1]]}$$$$V2.0) came in with a Ki of 180 nM. In other words, the sub-micromolar range.
